Reference: paper PMC4728661, “Cancer Prevention and Health Benefices of Traditionally Consumed Borago officinalis Plants” (Nutrients, 2016)
Marks after values point to notes of the source that are not given here.

What was measured:
D. melanogaster [1] = test: Toxicity: survival of Drosophila larvae to emerged adults, simple and combined (H2O2) treatments; type: in vivo, Drosophila melanogaster; settings: H2O2 0.12 M alone (positive control)
Description: Optimal fertile flies were anesthetized under CO2 narcotisation for cross selection and then placed in new vials for fertilization. After that, hybrid eggs from crossing were collected over an 8 h period and emerged larvae (72 ± 4 h later) were cleaned up for a few seconds in sterile distilled water to remove feeding medium rests. […] Bioactive compound concentrations were chosen on the basis of their known content in B. officinalis species. […] Larvae were fed on these media until pupation (about 48 h). After emergence, resulting adult flies were sacrificed under CO2 narcotisation and stored in a 70% ethanol solution in sterile water. […] The determination of Toxicity (T) of treatments in D. melanogaster was performed following this formula [39]: T = (N° of emerging individuals in treatment/N° of emerging individuals in the negative control) × 100(1) Differences in D. melanogaster survival between treatments at each concentration with respect to negative control were analyzed with a Chi-square test. This procedure was also performed for the analysis of each simple treatment with their correspondent combined treatment.

D. melanogaster [2] = test: Genotoxicity: Somatic Mutation and Recombination Test (SMART), wing spot test, simple treatments; type: in vivo, Drosophila melanogaster; settings: H2O2 0.12 M alone (positive control); on Diagnosis, Small Single Spots 1–2 Cells m = 2: key: + (positive); − (negative); on Diagnosis, Total Spots m = 2: key: + (positive); − (negative)
Description: The D. melanogaster system was selected for the determination of the safety of B. officinalis consumption as a well-recognized method to analyze vegetable complex mixtures using SMART [31, 32]. This test was used in order to evaluate the genotoxic and antigenotoxic activity of B. officinalis leaves and petioles as well as their selected bioactive compounds [33]. This activity was measured by direct visualization of the occurrence of recessive mutations in the wing hairs of two different D. melanogaster strains. Flies from experiments carried these visible wing genetic markers: the flare (flr) strain flr^3/ln (3LR) TM3, Bd^s and the multiple wing-hair (mwh) strain mwh/mwh. The marker flare (flr^3, 3_38.3) produces individual malformed hairs and the marker multiple wing hairs (mwh, 3_0.3) produces multiple hairs per cell. Larvae used in treatments come from two types of crosses: the standard cross with flr^3/TM3, Bd^S females mated to mwh/mwh males and the reciprocal cross.
Optimal fertile flies were anesthetized under CO2 narcotisation for cross selection and then placed in new vials for fertilization. After that, hybrid eggs from crossing were collected over an 8 h period and emerged larvae (72 ± 4 h later) were cleaned up for a few seconds in sterile distilled water to remove feeding medium rests. For genotoxicity analysis (simple treatments), groups of 100 larvae were transferred into vials containing 0.85 g of Drosophila Instant Medium (Formula 4–24, Carolina Biological Supply, Burlington, NC, USA) wetted with 4 mL of a mixture of distilled water and increasing concentrations of samples: B. officinalis BF and WF (1.25, 2.5, and 5 mg·mL^−1), RO (0.35, 0.7, 1.39 and 2.78 mM), SY (0.16, 0.32, 0.63 and 1.26 mM), SI (0.15, 0.29, 0.58 and 1.16 mM) and the mixture of these three bioactive compounds at each concentration assayed individually. Bioactive compound concentrations were chosen on the basis of their known content in B. officinalis species. […] Larvae were fed on these media until pupation (about 48 h). After emergence, resulting adult flies were sacrificed under CO2 narcotisation and stored in a 70% ethanol solution in sterile water. Emerged adults were counted for toxicity evaluation and transheterozygous wings (mwh flr^+/mwh^+ flr^3) were mounted on microscope slides and wing hair mutations (spots) scored, using a photonic microscope (Nikon) at 400× magnification for genotoxicity and antigenotoxicity evaluation.
For the evaluation of genotoxic effects, the frequencies of spots per fly of each treated series were compared to the concurrent negative control for each class of mutational clone as well as between simple and combined treatments for the same concentration comparisons. […] A multiple-decision procedure was used to categorize results as positive, inconclusive or negative. Inconclusive and positive results were evaluated by the non-parametric U test of Mann, Whitney and Wilcoxon. The inhibition percentage (IP) of genotoxicity was calculated from the total frequencies of spots per wing, following this formula [42]: IP = (genotoxin alone − sample + genotoxin) × 100/(genotoxin alone)(2)

Q: How did the Survival (D. melanogaster [1]) turn out when OO [H2O2, hydrogen peroxide, reference compound] was run?
A: Its Survival is 37.87 * %.

Q: What about the “Diagnosis, Small Single Spots 1–2 Cells m = 2” value (D. melanogaster [2]) of the same compound?
A: Its value is “+”.

Q: What about the “Diagnosis, Total Spots m = 2” value (D. melanogaster [2]) of the same compound?
A: The value was “+”.

Q: What about the “Mutation rate, Large Single Spots >2 Cells m = 5” value (D. melanogaster [2]) of the same compound?
A: Its value is 0.07 (11) spots/wing.

Q: And the “Mutation rate, Small Single Spots 1–2 Cells m = 2” value (D. melanogaster [2])?
A: The value was 0.60 (94) spots/wing.

Q: What about the “Mutation rate, Total Spots m = 2” value (D. melanogaster [2]) of the same compound?
A: Its value is 0.65 (109) spots/wing.

Q: What about the “Mutation rate, Twin Spots m = 5” value (D. melanogaster [2]) of the same compound?
A: Its value is 0.06 (4) spots/wing.
